17 compounds from EP0506011A1, “Tetrazoleacetic acid derivatives having aldose reductase inhibitory activity” (Wakamoto Pharmaceutical Co., Ltd., priority 1991, dated 1992) can be followed below.

The assay deals with T1, aldose reductase (Rattus norvegicus, UniProt P07943).
T1 construct: The lenses were homogenized in 3 volumes of 135 mM sodium potassium phosphate buffer (pH 7.0) and centrifuged; from tissue; host or cells: crystalline lenses of six-week-old male SD rats
As to the kind of experiment: Test for Examining Aldose Reductase Inhibitory Effect (rat lens enzyme, DL-glyceraldehyde substrate, absorbance at 340 nm). Conditions: aldose reductase solution from crystalline lenses of SD rats; DL-glyceraldehyde 10 mM; 30°C for 5 minutes; pH 5.2; compound at 10 ⁻⁶ M, 10⁻⁷ M or 10 ⁻⁸ M; read-out: IC₅₀. Format: biochemical. As to the method:
Six-week-old male SD rats were anesthetized with ether and killed. Then their crystalline lenses were immediately removed and stored at -80 °C . […] The resulting supernatant was dialyzed overnight against 0.05 M sodium chloride solution to obtain an aldose reductase solution. All operations were conducted at 4 °C and the enzyme solution was stored at -80°C .
More specifically, 0.1 ml of DL-glyceraldehyde (final concentration: 10 mM) was added to 0.9 ml of 100 mM sodium potassium phosphate buffer (pH 5.2) which contained lithium sulfate (final concentration: 400 mM), reduced nicotinamide adenine dinucleotide phosphate (final concentration: 0.15 mM), the enzyme solution, and the compound to be evaluated (final concentration: 10 ⁻⁶ M, 10⁻⁷ M or 10 ⁻⁸ M), and then the reaction was conducted at 30°C for 5 minutes. During the reaction, the change in the absorbance at 340 nm with time was monitored.
The maximum reducing rate of the absorbance (U) during the reaction was determined. By subtracting, from this value, the maximum reducing rate (U₀) at 340 nm of the reaction solution before the addition of the substrate (DL-glyceraldehyde), the reaction rate (V = U - U₀) was calculated as a true reaction rate in the presence of the compound to be tested. The same procedure was repeated except for the absence of the compound to be tested. A true reaction rate (V₀) in case the enzyme was not inhibited was calculated (V₀ = U¹ - U₀¹). The aldose reductase inhibitory activity of the test compounds was determined according to the following formula: Rate of Inhibition (%) = (V₀ - V)/V₀ x 100 [formula]
For the compound `O=C(O)Cn1nnnc1-c1cc2ccccc2s1` [Example 2-1, [5-(2-Benzothienyl)tetrazol-1-yl]acetic acid], the IC50 came to 0.024 µM. `O=C(O)Cn1nnnc1-c1csc2ccccc12` [Example 2-2, [5-(3-Benzothienyl)tetrazol-1-yl]acetic acid]: the IC50 was 0.019 µM.

Regarding `O=C(O)Cn1nnnc1-c1cccc2sccc12` [Example 2-3, [5-(4-Benzothienyl)tetrazol-1-yl]acetic acid], the IC50 was 0.026 µM. On to `O=C(O)Cn1nnnc1-c1ccc2ccsc2c1` [Example 2-4, [5-(6-Benzothienyl)tetrazol-1-yl]acetic acid], for which the IC50 stood at 0.034 µM. Take `Cc1c(-c2nnnn2CC(=O)O)sc2ccccc12` [Example 2-5, [5-(3-Methyl-2-benzothienyl)tetrazol-1-yl]acetic acid]: the IC50 came to 0.032 µM.

In the case of `O=C(O)Cn1nnnc1-c1sc2ccccc2c1Cl` [Example 2-6, [5-(3-Chloro-2-benzothienyl)tetrazol-1-yl]acetic acid], the IC50 stood at 0.035 µM. With `Cc1cccc2sc(-c3nnnn3CC(=O)O)cc12` [Example 2-7, [5-(4-Methyl-2-benzothienyl)tetrazol-1-yl]acetic acid] the figure was 0.022 µM; with `Cc1ccc2cc(-c3nnnn3CC(=O)O)sc2c1` [Example 2-8, [5-(6-Methyl-2-benzothienyl)tetrazol-1-yl]acetic acid], 0.018 µM; with `COc1cccc2sc(-c3nnnn3CC(=O)O)cc12` [Example 2-9, [5-(4-Methoxy-2-benzothienyl)tetrazol-1-yl]acetic acid], 0.02 µM. The figure for `COc1ccc2sc(-c3nnnn3CC(=O)O)cc2c1` [Example 2-10, [5-(5-Methoxy-2-benzothienyl)tetrazol-1-yl]acetic acid] is 0.028 µM; for `COc1ccc2cc(-c3nnnn3CC(=O)O)sc2c1` [Example 2-11, [5-(6-Methoxy-2-benzothienyl)tetrazol-1-yl]acetic acid] it is 0.021 µM; for `CCCCOc1ccc2cc(-c3nnnn3CC(=O)O)sc2c1` [Example 2-12, [5-(6-Butoxy-2-benzothienyl)tetrazol-1-yl]acetic acid] it is 0.024 µM.

Regarding `CC(C)c1ccc2cc(-c3nnnn3CC(=O)O)sc2c1` [Example 2-13, [5-(6-Isopropyl-2-benzothienyl)tetrazol-1-yl]acetic acid], the IC50 worked out at 0.018 µM.

On to `COc1cc2cc(-c3nnnn3CC(=O)O)sc2c(OC)c1OC` [Example 2-14, [5-(5,6,7-Trimethoxy-2-benzothienyl)tetrazol-1-yl]acetic acid], for which the IC50 is 0.069 µM.

On to `O=C(O)Cn1nnnc1-c1cc2ccccc2o1` [Example 2-15, [5-(2-Benzofuryl)tetrazol-1-yl]acetic acid], for which the IC50 was 0.046 µM. Regarding `Cc1c(-c2nnnn2CC(=O)O)oc2ccccc12` [Example 2-16, [5-(3-Methyl-2-Benzofuryl)tetrazol-1-yl]acetic acid], the IC50 is 0.068 µM.

In the case of `COc1ccc2c(C)c(-c3nnnn3CC(=O)O)oc2c1` [Example 2-17, [5-(6-Methoxy-3-methyl-2-benzofuryl)tetrazol-1-yl]acetic acid], the IC50 came out at 0.16 µM.
